From ChEMBL document CHEMBL3259604, “Synthesis and anti-BVDV activity of novel δ-sultones in vitro: implications for HCV therapies” (Bioorg Med Chem Lett, 2014)

Experiments:
[1] = Cytotoxicity against MDBK cells at 20 uM after 48 hrs by MTT assay; format: cell-based, Bos taurus; conditions: cattle
[2] = test system: Bovine viral diarrhea virus 1; assay: Antiviral activity against BVDV AV-69 infected in MDBK cells assessed as cytopathic effect after 3 to 4 days by plaque reduction assay; format: functional, organism-based; conditions: Bovine viral diarrhea virus isolates and strains, AV-69, MDBK
[3] = Cytotoxicity against MDBK cells after 48 hrs by MTT assay; format: cell-based, Bos taurus; conditions: cattle
[4] = test system: Bovine viral diarrhea virus 1; assay: Ratio of ribavirin EC50 to compound EC50 for BVDV AV-69; format: functional

Structure (SMILES) | Activity [1] | EC50 [2] | CC50 at 48 h [3] | Ratio EC50 [4]
CC12COS(=O)(=O)CC1=C(c1ccc(C(F)(F)F)cc1)C(=O)O2 (stereo not drawn) | Non-toxic | > 1200 nM | – | –
Cc1ccc(C2=C3CS(=O)(=O)OCC3(C)OC2=O)cc1 (stereo not drawn) | Non-toxic | > 1200 nM | – | –
CC12COS(=O)(=O)CC1=C(c1ccc(Cl)cc1)C(=O)O2 (stereo not drawn) | Non-toxic | 500 nM | – | –
CC12COS(=O)(=O)CC1=C(c1ccccc1)C(=O)O2 (stereo not drawn) | – | 500 nM | > 20000 nM | –
CC12COS(=O)(=O)CC1=C(c1ccccc1Br)C(=O)O2 (stereo not drawn) | – | 120 nM | > 20000 nM | 10
CC12COS(=O)(=O)CC1=C(c1ccc(Br)cc1)C(=O)O2 (stereo not drawn) | Non-toxic | 1000 nM | – | –
COc1ccc(C2=C3CS(=O)(=O)OCC3(C)OC2=O)cc1 (stereo not drawn) | – | > 1200 nM | – | –
CC12COS(=O)(=O)CC1=C(c1ccc(F)c(F)c1)C(=O)O2 (stereo not drawn) | Non-toxic | > 1200 nM | – | –
CC12COS(=O)(=O)CC1=C(c1ccccc1F)C(=O)O2 (stereo not drawn) | – | 500 nM | > 20000 nM | –
CC12COS(=O)(=O)CC1=C(c1cccc(F)c1)C(=O)O2 (stereo not drawn) | – | 1000 nM | > 20000 nM | –
CC12COS(=O)(=O)CC1=C(c1ccc(F)cc1)C(=O)O2 (stereo not drawn) | – | > 1200 nM | – | –
NC(=O)c1ncn([C@@H]2O[C@H](CO)[C@@H](O)[C@H]2O)n1 [RIBAVIRIN] | – | 1300 nM | > 20000 nM | –
